One block for each molecule: values may come before it.
Key:
[1] = system: SOCS1 and SOCS3 mRNA in DCs; experiment: Q-PCR of SOCS1 and SOCS3 mRNA in DCs; type: cell-based, mouse; details: for SOCS1 mRNA induction: 300 U/ml IFNα
Procedure: (§1) Splenic DCs (1×10^6 cells/ml) or BM-DCs (5×10^6 cells/ml) were cultured in serum-free medium and treated with the indicated concentrations of murine recombinant Gas6, murine recombinant Protein S, the TLR ligands indicated above, recombinant mouse IFNα (PBL Biomedical laboratories), recombinant mouse Axl-FC chimera (R&D), cyclohexamide (Sigma) or Actinomycin D (Sigma). Whole cell lysates and RNA extraction were performed as indicated below.
(§2) After stimulation, cells were harvested, and total RNA was isolated using the RNeasy mini kit (Qiagen). Reverse transcription was performed according to manufacturer instructions with RT Superscript III (Invitrogen). PCR reactions were performed on an ABI Prism 7700 Sequence Detection System using SYBRGreen PCR master mix (Applied Biosystems). Each reaction was normalized against the expression of β-actin or GAPDH. Analyses of dissociation curves were performed with SDS software (Applied Biosystems) to ensure the absence of nonspecific amplification. Q-PCR primers used herein are listed below.

[2] = system: IRF-7 and IFI-204 mRNA in DCs; experiment: Q-PCR of IRF-7 and IFI-204 mRNA in DCs; type: cell-based, mouse; details: splenic DCs, 300 U/ml IFNα
Procedure: as §1, §2

[3] = system: Axl mRNA and protein in DCs; experiment: Axl expression in DCs (Q-PCR, FACS, Western blot); type: cell-based, mouse; details: for Axl expression by Western blot: WT DCs
Procedure: as §1
DCs were washed in PBS and harvested in NuPage LDS sample buffer (Invitrogen) with 100 μM DTT. Whole cell lysates were resolved by electrophoresis, proteins were transferred to a PVDF membrane (Immobilon P, Millipore), blocked in 3% BSA/TBS-Tween-20 and probed with the indicated antibodies. For fluorescent western blotting with the Odyssey system, proteins were transferred to an Immobilon-FL PVDF membrane (Millipore) and incubated with two primary antibodies in 0.1% casein/PBS-Tween-20. Following incubation with fluorescence-labeled secondary antibodies, membranes were scanned with the Odyssey imaging system (LI-COR).
as §2
Cells were incubated for 15 minutes with a rat mAb to CD16/32 to block Fc receptors and then with primary antibodies for 20 minutes on ice. The following mAbs against murine molecules were used: allophycocyanin- and phycoerythrin-conjugated anti-CD11c, FITC-conjugated anti-MHC class I (H-2K^b) and anti-MHC class II (I-A^b), PerCP-Cy5.5-conjugated anti-CD3, anti-CD19 and anti-NK1.1 (all from BD Pharmingen). For Axl staining, cells were processed as described, fixed with 10% paraformaldehyde, permeabilized with Saponin (0.1%, Sigma), incubated with Axl (M-20) antibody for 30 minutes and then with anti-goat Cy5 antibody (Jackson ImmunoResearch). Fluorescent cells were acquired with a FacsSort flow cytometer (Becton Dickinson) and analyzed with FlowJo (Tree Star) software.

[4] = system: TLR-induced cytokine production in DCs; experiment: DC activation assay: TLR-induced cytokine production (ELISA / ISRE luciferase reporter); type: cell-based, mouse; details: IFNα, 10 nM CpG, 15 hours, 3 nM ProS (FIG. 8A)
Procedure: Splenic DC or BM-DCs (1×10^6 cells/ml) were cultured overnight in serum-free medium (StemSpan, StemCell Technologies Inc.) in the presence of the indicated concentrations of LPS from Salmonella minnesota R595 Re (Alexis), CpG-ODN 1668 (TCCATGACGTTCCGATGCT; SEQ ID NO: 19; Integrated DNA Technologies) or Poly I:C (InvivoGen) alone or in the presence of murine recombinant Gas6 (R&D Systems) or murine recombinant Protein S (produced as described in Prasad et al., (2006) Mol Cell Neurosci 33:96-108). Cytokine production was quantified in cell-free supernatants by ELISA (ebioscience for IL-12, IL-6 and TNFα and PBL-biomedical for IFNα) or by a luciferase assay using a cell line containing an ISRE-responsive element luciferase reporter construct for Type I IFN (Jiang et al., (2005) Nat Immunol 6:565-570).

[5] = molecular target: TAM receptors (on mouse dendritic cells); experiment: cell-based or functional assay
[6] = molecular target: T1, Axl (mouse, endogenous in bone marrow-derived dendritic cells) (mouse, UniProt Q00993 19-888); experiment: co-immunoprecipitation from BM-DC whole cell lysates, untreated (-) or treated 20 min with 50 nM Gas6 (+); IP with antibody to the IFN receptor R2 chain, immunoblot for Axl
T1 construct: whole, on cells; Endogenous protein co-immunoprecipitated from Triton X-100 lysates of mouse BM-DCs, not a recombinant construct; also called TAM receptor
T1 sequence (looked up): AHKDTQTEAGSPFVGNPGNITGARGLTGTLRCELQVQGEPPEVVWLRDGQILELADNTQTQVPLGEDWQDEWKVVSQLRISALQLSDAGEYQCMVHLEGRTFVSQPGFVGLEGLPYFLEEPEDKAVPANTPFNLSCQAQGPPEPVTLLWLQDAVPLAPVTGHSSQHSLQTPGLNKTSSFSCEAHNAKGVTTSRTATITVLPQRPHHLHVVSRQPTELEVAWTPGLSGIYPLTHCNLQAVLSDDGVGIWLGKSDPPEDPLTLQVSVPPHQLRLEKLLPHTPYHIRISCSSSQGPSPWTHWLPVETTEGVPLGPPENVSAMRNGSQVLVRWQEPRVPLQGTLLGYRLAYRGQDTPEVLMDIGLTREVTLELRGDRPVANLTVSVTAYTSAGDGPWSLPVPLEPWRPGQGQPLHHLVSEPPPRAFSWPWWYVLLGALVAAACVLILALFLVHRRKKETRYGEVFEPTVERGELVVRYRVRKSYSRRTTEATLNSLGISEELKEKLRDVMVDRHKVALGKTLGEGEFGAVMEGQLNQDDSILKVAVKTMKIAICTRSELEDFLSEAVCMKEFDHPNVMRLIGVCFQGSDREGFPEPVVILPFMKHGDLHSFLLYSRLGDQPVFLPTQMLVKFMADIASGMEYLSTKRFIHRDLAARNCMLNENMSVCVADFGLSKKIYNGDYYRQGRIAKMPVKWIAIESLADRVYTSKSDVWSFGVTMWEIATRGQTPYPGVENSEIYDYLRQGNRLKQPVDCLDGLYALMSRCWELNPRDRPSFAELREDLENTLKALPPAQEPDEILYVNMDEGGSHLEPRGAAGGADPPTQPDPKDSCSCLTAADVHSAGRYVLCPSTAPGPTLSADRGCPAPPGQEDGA

STAT1 = molecular target: T2, STAT1 (mouse, UniProt P42225); experiment: co-immunoprecipitation from BM-DC whole cell lysates, untreated (-) or treated 20 min with 50 nM Gas6 (+); IP with antibody to the IFN receptor R1 chain, immunoblot for STAT1
T2 construct: endogenous full-length protein in the cell lysate; also called total STAT1
T2 sequence (transcription factor, looked up): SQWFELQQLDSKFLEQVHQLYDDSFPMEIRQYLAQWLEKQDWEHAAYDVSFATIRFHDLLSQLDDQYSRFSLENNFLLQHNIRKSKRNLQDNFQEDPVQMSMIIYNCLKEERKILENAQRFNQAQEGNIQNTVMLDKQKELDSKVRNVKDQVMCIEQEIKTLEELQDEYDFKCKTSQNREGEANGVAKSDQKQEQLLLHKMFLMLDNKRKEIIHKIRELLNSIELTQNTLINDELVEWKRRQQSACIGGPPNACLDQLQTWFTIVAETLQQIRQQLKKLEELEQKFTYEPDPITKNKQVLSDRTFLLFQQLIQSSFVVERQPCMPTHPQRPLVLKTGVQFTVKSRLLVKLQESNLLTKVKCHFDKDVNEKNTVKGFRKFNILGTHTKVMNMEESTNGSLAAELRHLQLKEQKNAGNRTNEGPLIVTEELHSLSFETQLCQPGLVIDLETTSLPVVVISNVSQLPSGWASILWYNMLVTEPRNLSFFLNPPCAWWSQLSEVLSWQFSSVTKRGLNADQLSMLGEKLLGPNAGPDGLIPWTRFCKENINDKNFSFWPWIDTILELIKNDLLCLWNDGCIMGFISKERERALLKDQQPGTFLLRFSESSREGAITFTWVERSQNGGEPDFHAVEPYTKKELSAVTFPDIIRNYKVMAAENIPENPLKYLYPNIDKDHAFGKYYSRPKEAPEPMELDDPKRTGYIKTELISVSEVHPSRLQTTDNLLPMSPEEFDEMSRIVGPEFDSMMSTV

Molecule: IFNα
- SOCS1 mRNA expressed by TAM TKO DCs relative to WT DCs ([1]; IFN-treated, integrated over the 6-hour time course): ~24%
- SOCS1 mRNA induction ([1]; TAM TKO splenic DCs): significantly blunted
- SOCS1 mRNA induction ([1]; WT splenic DCs, 2 hours, sustained up to 6 hours): robust induction
- IFNα-induced IRF-7 and IFI-204 mRNA levels, WT versus TAM TKO DCs [2]: indistinguishable
- Axl induction ([3]; STAT1−/− DCs): lost
- Axl expression by Western blot [3]: substantial up-regulation

Molecule: poly I:C
- Axl induction ([3]; Ifnar−/− DCs): lost
- Axl induction ([3]; STAT1−/− DCs): lost
- Axl expression by Western blot [3]: substantial up-regulation

Other lines, results leading:

- inhibiting TLR-induced cytokine production in WT DCs, compared with Gas6 [4]: equally effective
Molecule: ProS: murine recombinant Protein S, the second agonist for TAM receptors

- SOCS1 mRNA expression in BM-DCs (Q-PCR) after addition of 50 nM Gas6 [5]: 10 fold
- SOCS3 mRNA expression in BM-DCs (Q-PCR) after addition of 50 nM Gas6 [5]: 10 fold
Molecule: murine recombinant Gas6 (R&D Systems) (from UniProt Q61592 28-674) (ligand)

- binding result [6]: no binding
B1: IFNAR2 (receptor, mouse, UniProt O35664 22-513, looked up)
receptor chain: SLETITPSAFDGYPDEPCTINITIRNSRLILSWELENKSGPPANYTLWYTVMSKDENLTKVKNCSDTTKSSCDVTDKWLEGMESYVVAIVIVHRGDLTVCRCSDYIVPANAPLEPPEFEIVGFTDHINVTMEFPPVTSKIIQEKMKTTPFVIKEQIGDSVRKKHEPKVNNVTGNFTFVLRDLLPKTNYCVSLYFDDDPAIKSPLKCIVLQPGQESGLSESAIVGITTSCLVVMVFVSTIVMLKRIGYICLKDNLPNVLNFRHFLTWIIPERSPSEAIDRLEIIPTNKKKRLWNYDYEDGSDSDEEVPTASVTGYTMHGLTGKPLQQTSDTSASPEDPLHEEDSGAEESDEAGAGAGAEPELPTEAGAGPSEDPTGPYERRKSVLEDSFPREDNSSMDEPGDNIIFNVNLNSVFLRVLHDEDASETLSLEEDTILLDEGPQRTESDLRIAGGDRTQPPLPSLPSQDLWTEDGSSEKSDTSDSDADVGDGYIMR
notes: endogenous full-length protein in the cell lysate; also called R2 chain of the type I IFN receptor; IFN receptor R2 chain

- binding result (STAT1): no binding
B2: R1 chain of the type I IFN receptor (mouse, endogenous in BM-DCs) (receptor, UniProt P33896 27-590, looked up)
chain: ENLKPPENIDVYIIDDNYTLKWSSHGESMGSVTFSAEYRTKDEAKWLKVPECQHTTTTKCEFSLLDTNVYIKTQFRVRAEEGNSTSSWNEVDPFIPFYTAHMSPPEVRLEAEDKAILVHISPPGQDGNMWALEKPSFSYTIRIWQKSSSDKKTINSTYYVEKIPELLPETTYCLEVKAIHPSLKKHSNYSTVQCISTTVANKMPVPGNLQVDAQGKSYVLKWDYIASADVLFRAQWLPGYSKSSSGSRSDKWKPIPTCANVQTTHCVFSQDTVYTGTFFLHVQASEGNHTSFWSEEKFIDSQKHILPPPPVITVTAMSDTLLVYVNCQDSTCDGLNYEIIFWENTSNTKISMEKDGPEFTLKNLQPLTVYCVQARVLFRALLNKTSNFSEKLCEKTRPGSFSTIWIITGLGVVFFSVMVLYALRSVWKYLCHVCFPPLKPPRSIDEFFSEPPSKNLVLLTAEEHTERCFIIENTDTVAVEVKHAPEEDLRKYSSQTSQDSGNYSNEEEESVGTESGQAVLSKAPCGGPCSVPSPPGTLEDGTCFLGNEKYLQSPALRTEPALLC
notes: whole, on cells; Endogenous protein immunoprecipitated from mouse BM-DC lysates; also called IFNAR1; IFN receptor R1 chain
